The numbers were not newly measured in patent publication US20110009348A1, “CARBOHYDRATE GEL” (priority 2008, published 2011), which cites them from elsewhere.

In this data set the test system is male cyclists. Conditions: comparison values given in text, source not stated.

Take `O=C(CO)[C@@H](O)[C@H](O)[C@H](O)CO` [fructose]: the “peak oxidation achieved with a single carbohydrate source” value is recorded as around 0.4 g/min.
